The target in the assay is MCH receptor (Homo sapiens, UniProt Q99705). In words: Receptor binding assay with Radiolabelled MCH Ligand. Set-up: expressed in transfected cells; host or cells: 293 cells (human kidney, ATCC), transient transfection; crude membranes. The conditions noted are these: class by percent of control at 10^-7 M or IC50. The procedure, abridged: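 Membranes from 293 cells transiently transfected with human MCH receptor competed test compounds against a radiolabelled MCH ligand in Tris-HCl pH 7.4 with MgCl2 and EDTA for 60–120 min at room temperature. Filtration and scintillation counting followed, with cold MCH defining nonspecific binding. IC50 came from logit-log plots of %B/B0, and Ki from the Cheng-Prusoff equation.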
Sequence of MCH receptor (Q99705 whole entry): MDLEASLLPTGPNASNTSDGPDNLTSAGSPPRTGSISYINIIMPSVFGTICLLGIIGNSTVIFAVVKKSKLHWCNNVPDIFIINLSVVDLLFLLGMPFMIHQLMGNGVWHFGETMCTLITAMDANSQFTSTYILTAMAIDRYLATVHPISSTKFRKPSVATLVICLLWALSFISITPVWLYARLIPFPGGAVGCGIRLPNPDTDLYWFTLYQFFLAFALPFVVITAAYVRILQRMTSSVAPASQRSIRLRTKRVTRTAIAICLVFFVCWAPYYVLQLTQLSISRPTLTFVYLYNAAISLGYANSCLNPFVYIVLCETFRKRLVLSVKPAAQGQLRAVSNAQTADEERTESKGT
`Cc1nc(N[C@H]2CC[C@@H](NC(=O)c3cc(C(C)(C)C)nn3Cc3ccccc3)CC2)cc(N(C)C)n1` [compound 267]: the class is reported as 3 (Class 3: The value of percent of control at 10^−7 M was more than 60% or the value of IC50 was more than 200 nM.).

In the case of `Cc1nc(N[C@H]2CC[C@@H](NC(=O)c3ccc(Br)cc3)CC2)cc(N(C)C)n1` [compound 205], the class is 3 (Class 3: The value of percent of control at 10^−7 M was more than 60% or the value of IC50 was more than 200 nM.).

Turning to `COc1cc(COC(=O)N[C@H]2CC[C@@H](Nc3cc(N(C)C)nc(C)n3)CC2)c([N+](=O)[O-])cc1OC` [compound 453], the class is 3 (Class 3: The value of percent of control at 10^−7 M was more than 60% or the value of IC50 was more than 200 nM.).

With `CCCCCCCCCc1ccc(C(=O)N[C@H]2CC[C@@H](Nc3cc(N(C)C)nc(C)n3)CC2)cc1` [compound 254], the class was 3 (Class 3: The value of percent of control at 10^−7 M was more than 60% or the value of IC50 was more than 200 nM.).

As to `Cc1nc(N[C@H]2CC[C@@H](NC(=O)c3ccc(F)c(F)c3)CC2)cc(N(C)C)n1` [compound 218, N-(cis-4-{[6-(dimethylamino)-2-methylpyrimidin-4-yl]amino}cyclohexyl)-3,4-difluorobenzamide], the class was 1 (Class 1: The value of percent of control at 10^−7 M was less than 40% or the value of IC50 was less than 50 nM.).

For the molecule `Cc1nc(N[C@H]2CC[C@@H](NS(=O)(=O)c3c(C)nn(C)c3C)CC2)cc(N(C)C)n1` [compound 513], the class is 3 (Class 3: The value of percent of control at 10^−7 M was more than 60% or the value of IC50 was more than 200 nM.).

With `Cc1nc(N[C@H]2CC[C@@H](NC(=O)Cc3nc(-c4ccccc4)sc3C)CC2)cc(N(C)C)n1` [compound 289], the class is reported as 3 (Class 3: The value of percent of control at 10^−7 M was more than 60% or the value of IC50 was more than 200 nM.).

On to `Cc1nc(N[C@H]2CC[C@@H](NS(=O)(=O)c3cccc4c(N(C)C)cccc34)CC2)cc(N(C)C)n1` [compound 490], for which the class is given as 3 (Class 3: The value of percent of control at 10^−7 M was more than 60% or the value of IC50 was more than 200 nM.).

Take `Cc1nc(N[C@H]2CC[C@@H](NS(=O)(=O)c3cc(S(=O)(=O)c4ccccc4)cs3)CC2)cc(N(C)C)n1` [compound 519]: the class was 3 (Class 3: The value of percent of control at 10^−7 M was more than 60% or the value of IC50 was more than 200 nM.).

In the case of `Cc1nc(N[C@H]2CC[C@@H](NC(=O)c3ccc(SC(F)(F)F)cc3)CC2)cc(N(C)C)n1` [compound 261], the class is recorded as 3 (Class 3: The value of percent of control at 10^−7 M was more than 60% or the value of IC50 was more than 200 nM.).

Take `Cc1nc(N[C@H]2CC[C@@H](NC(=O)c3ccccc3C(=O)c3cc(C(F)(F)F)cc(C(F)(F)F)c3)CC2)cc(N(C)C)n1` [compound 322]: the class is recorded as 3 (Class 3: The value of percent of control at 10^−7 M was more than 60% or the value of IC50 was more than 200 nM.).

`Cc1ccc(OC(=O)N[C@H]2CC[C@@H](Nc3cc(N(C)C)nc(C)n3)CC2)cc1` [compound 466]: the class is 3 (Class 3: The value of percent of control at 10^−7 M was more than 60% or the value of IC50 was more than 200 nM.).

Take `Cc1nc(N[C@H]2CC[C@@H](NC(=O)Cc3ccccc3)CC2)cc(N(C)C)n1` [compound 235]: the class is listed as 3 (Class 3: The value of percent of control at 10^−7 M was more than 60% or the value of IC50 was more than 200 nM.).

With `Cc1nc(N[C@H]2CC[C@@H](NC(=O)Cc3ccccc3C(=O)Nc3ccc(F)cc3F)CC2)cc(N(C)C)n1` [compound 294], the class is recorded as 3 (Class 3: The value of percent of control at 10^−7 M was more than 60% or the value of IC50 was more than 200 nM.).

As for `Cc1nc(N[C@H]2CC[C@@H](NC(=O)Cc3ccc(SC(F)(F)F)cc3)CC2)cc(N(C)C)n1` [compound 315], the class was 3 (Class 3: The value of percent of control at 10^−7 M was more than 60% or the value of IC50 was more than 200 nM.).

Consider `Cc1nc(N[C@H]2CC[C@@H](NC(=O)c3ccccc3)CC2)cc(N(C)C)n1` [compound 200, N-(cis-4-{[6-(dimethylamino)-2-methylpyrimidin-4-yl]amino}cyclohexyl)benzamide], for which the class is recorded as 2 (Class 2: The value of percent of control at 10^−7 M was from 40% to 60% or the value of IC50 was from 50 nM to 200 nM.).

Consider `Cc1cc(C)c(NC(=O)N[C@H]2CC[C@@H](Nc3cc(N(C)C)nc(C)n3)CC2)c(C)c1` [compound 417], for which the class is listed as 3 (Class 3: The value of percent of control at 10^−7 M was more than 60% or the value of IC50 was more than 200 nM.).

As for `Cc1nc(N[C@H]2CC[C@@H](NC[C@H](Cc3ccccc3)NS(=O)(=O)c3cccc4ccccc34)CC2)cc(N(C)C)n1` [compound 404], the class is 3 (Class 3: The value of percent of control at 10^−7 M was more than 60% or the value of IC50 was more than 200 nM.).

Regarding `Cc1nc(N[C@H]2CC[C@@H](NC(=O)CCCCc3cccs3)CC2)cc(N(C)C)n1` [compound 316], the class is 3 (Class 3: The value of percent of control at 10^−7 M was more than 60% or the value of IC50 was more than 200 nM.).

In the case of `COC(=O)N[C@H]1CC[C@@H](Nc2cc(N(C)C)nc(C)n2)CC1` [compound 467], the class is given as 3 (Class 3: The value of percent of control at 10^−7 M was more than 60% or the value of IC50 was more than 200 nM.).

Consider `Cc1nc(N[C@H]2CC[C@@H](NC(=O)c3cccc(C(F)(F)F)c3)CC2)cc(N(C)C)n1` [compound 241, N-(cis-4-{[6-(dimethylamino)-2-methylpyrimidin-4-yl]amino}cyclohexyl)-3-(trifluoromethyl)benzamide], for which the class is on record as 3 (Class 3: The value of percent of control at 10^−7 M was more than 60% or the value of IC50 was more than 200 nM.).

With `Cc1nc(N[C@H]2CC[C@@H](NC(=O)/C=C/c3ccccc3Cl)CC2)cc(N(C)C)n1` [compound 265], the class is recorded as 3 (Class 3: The value of percent of control at 10^−7 M was more than 60% or the value of IC50 was more than 200 nM.).

In the case of `Cc1nc(N[C@H]2CC[C@@H](NC(=O)CC3=CCCCC3)CC2)cc(N(C)C)n1` [compound 278], the class was 3 (Class 3: The value of percent of control at 10^−7 M was more than 60% or the value of IC50 was more than 200 nM.).

For `Cc1nc(N[C@H]2CC[C@@H](NCc3ccco3)CC2)cc(N(C)C)n1` [compound 373], the class was 3 (Class 3: The value of percent of control at 10^−7 M was more than 60% or the value of IC50 was more than 200 nM.).

As to `Cc1nc(N[C@H]2CC[C@@H](NC(=O)NCc3ccc(F)cc3)CC2)cc(N(C)C)n1` [compound 413], the class is 3 (Class 3: The value of percent of control at 10^−7 M was more than 60% or the value of IC50 was more than 200 nM.).

`CCCCCCCc1ccc(-c2ccc(C(=O)N[C@H]3CC[C@@H](Nc4cc(N(C)C)nc(C)n4)CC3)cc2)cc1` [compound 334]: the class was 3 (Class 3: The value of percent of control at 10^−7 M was more than 60% or the value of IC50 was more than 200 nM.).

As to `Cc1nc(N[C@H]2CC[C@@H](NC(=O)c3ccc(I)o3)CC2)cc(N(C)C)n1` [compound 285, N-(cis-4-{[6-(dimethylamino)-2-methylpyrimidin-4-yl]amino}cyclohexyl)-5-iodo-2-furamide], the class is listed as 3 (Class 3: The value of percent of control at 10^−7 M was more than 60% or the value of IC50 was more than 200 nM.).
